From patent US6555663B1, “Prodrugs for selective drug delivery” (priority 1986, dated 2003) come the findings set out here.

The test system of series [1] is RSFFV (Raucher Spleen Focus Forming Virus). Put plainly: Treatment of C3H mice infected with Raucher Spleen Focus Forming Virus: spleen weight. Type of series: in vivo. As for the experimental part: The effectiveness of MTL J-1 was tested in C3H mice against the virus RSFFV (Raucher Spleen Focus Forming Virus) which is a retrovirus and is a valid animal model for HIV infection by application to the above identified mice according to the following procedure:
(§1) Three groups of two month old C3H mice, each comprising four animals were provided as one control and two test groups, wherein, the three-groups (I-III) were subjected to an infectious dose of RSFFV on day one. The first group (I) served as control and received no treatment. Group II and III were treated with […] total body weight concentration of the drug Foscarnet and the test compound MTL J-1, respectively which was administered each day for days 5 through 9. The animals were sacrificed on day 14, where upon the spleens where removed and weighed.
(§2) The tests were redone with a second control group (IA) having no infection of RSFFV and receiving no treatment with any drug, wherein groups I and IA comprise four mice each, and groups II and III comprise five mice each, providing the results summarized below: […]

Series [2] in a line: Body weight of treated RSFFV-infected C3H mice (toxicity). Type of series: in vivo. As for the experimental part: as §1, §2
The mark [3] stands for this setting: RSFFV-infected C3H mice, 10 μM total body weight concentration, days 5 through 9.
[4] abbreviates: first test (Table 1), RSFFV on day one, 10 μM total body weight concentration each day for days 5 through 9, sacrificed day 14.
The mark [5] stands for this setting: repeat test (Table 2) with a second, uninfected control group IA, same treatment.

On to “5-phosphonoformate-1,5-di-(p-N-2-(N-(4-aminobutyl)-N-ethylisoluminol)-N-ethylaminophenyl)-1,5-bis-(p-N,N-dimethylaniline)-1,3-pentadiene [MTL J-1]”, for which the “Effectiveness, as demonstrated by the absence of splenomegaly” value in series [1] (setting [3]) is reported as “highly effective”. The “Spleen weight Normalized” value in series [1] (setting [4]) is recorded as “.068 grams”; in series [1] (setting [5]), 0.049 grams. In series [2] (setting [3]), the “Toxicity, as demonstrated by an absence of weight loss” value is given as “nontoxic”. Moreover, the “Ending Weight” value in series [2] (mouse, in vivo) was found to be 19.2 grams. Moreover, the Weight change result in series [2] (mouse, in vivo) was “+1.5 grams”.
Regarding phosphonoformate [Foscarnet], the figures for the “Spleen weight Normalized” value in series [1] (setting [4]) and in series [1] (setting [5]) were “.079 grams” and 0.061 grams, respectively. Moreover, the “Ending Weight” value in series [2] (setting [4]) is 21.2 grams; in series [2] (setting [5]) it was 19.6 grams. Further, the Weight change in series [2] (setting [4]) is 0.15 grams; in series [2] (setting [5]), “+1.6 grams”.
